The compounds below were run against HPK1 (Homo sapiens (Human), UniProt Q92918) (assay: HPK1 biochemical enzyme assay (microfluidic mobility shift assay)). Settings: 1.5 nM HPK1, ATP 1 mM final, 30 min preincubation, 60 min at RT, Caliper EZ Reader; read-out: HPK1 1000UMATP caliper IC50.
Method in brief: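 Mobility shift readout of HPK1 activity after a 60 min RT reaction with 1 mM ATP, 1 μM substrate and 5 mM MgCl2. Enzyme/substrate mix was first exposed to compounds for 30 min, using ten-point curves topping at 3 μM final.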

HPK1, sequence (Q92918 whole entry): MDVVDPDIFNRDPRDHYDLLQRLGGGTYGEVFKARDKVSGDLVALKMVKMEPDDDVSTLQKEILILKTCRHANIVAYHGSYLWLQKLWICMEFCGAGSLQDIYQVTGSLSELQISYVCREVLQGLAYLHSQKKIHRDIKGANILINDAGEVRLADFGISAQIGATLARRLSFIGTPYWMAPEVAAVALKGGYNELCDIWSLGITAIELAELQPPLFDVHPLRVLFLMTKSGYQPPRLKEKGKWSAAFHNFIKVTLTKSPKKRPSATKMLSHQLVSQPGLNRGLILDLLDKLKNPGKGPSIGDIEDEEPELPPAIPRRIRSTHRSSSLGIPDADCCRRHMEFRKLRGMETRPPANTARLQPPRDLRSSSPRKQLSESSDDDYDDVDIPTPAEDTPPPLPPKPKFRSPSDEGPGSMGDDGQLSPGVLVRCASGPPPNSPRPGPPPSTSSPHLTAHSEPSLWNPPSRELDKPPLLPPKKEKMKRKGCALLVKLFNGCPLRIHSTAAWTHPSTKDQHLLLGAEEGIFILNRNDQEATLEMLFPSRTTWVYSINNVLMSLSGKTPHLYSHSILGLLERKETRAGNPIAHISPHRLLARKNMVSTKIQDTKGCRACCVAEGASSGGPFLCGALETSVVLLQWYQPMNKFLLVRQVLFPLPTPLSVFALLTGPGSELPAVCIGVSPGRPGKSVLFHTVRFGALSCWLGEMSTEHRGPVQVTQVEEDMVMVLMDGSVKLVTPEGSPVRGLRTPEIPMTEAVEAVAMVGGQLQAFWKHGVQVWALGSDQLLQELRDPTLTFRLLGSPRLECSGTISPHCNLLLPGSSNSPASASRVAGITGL

IC50	SMILES
100 to 1000 nM	CN1CCN(c2ccc(Nc3ccc(-c4ccnc5ocnc45)c4c3C(=O)NC4)nc2)CC1 [I-270, 7-((5-(4-methylpiperazin-1-yl)pyridin-2-yl)amino)-4-(oxazolo[5,4-b]pyridin-7-yl)isoindolin-1-one]
< 100 nM	Cn1ccc2c(-c3ccc(Nc4cc(C5CCNCC5)n[nH]4)c4c3CNC4=O)ccnc21 [I-115, 4-(1-methylpyrrolo [2,3-b]pyridin-4-yl)-7-[[3-(4-piperidyl)-1H-pyrazol-5-yl]amino]isoin-dolin-1-one]
< 100 nM	CO[C@@]1(CN(C)C)CCCN(c2ccc(Nc3ccc(-c4cnc5cc(F)ccn45)c4c3C(=O)NC4)nc2)C1 [I-611, (R)-7-((5-(3-((dimethylamino)-methyl)-3-methoxy-piperidin-1-yl)pyridin-2-yl)amino)-4-(7-fluoroimidazo [1,2-a]pyridin-3-yl)isoindolin-1-one]
< 100 nM	Cn1ccc2c(-c3c(Cl)cc(Nc4ccc(N5CCC(O)CC5)cn4)c4c3CNC4=O)ccnc21 [I-190, 5-chloro-7-[[5-(4-hydroxy-1-piperidyl)-2-pyridyl]amino]-4-(1-methylpyrrolo[2,3-b]pyridin-4-yl)isoindolin-1-one]
< 100 nM	O=C1NCc2c(-c3cnc4cc(F)ccn34)ccc(Nc3ccc([C@H]4CCOC4)c(CN4CCC(F)(F)C4)n3)c21 [I-717, (R)-7-((6-((3,3-difluoropyrro-lidin-1-yl)methyl)-5-(tetrahydrofuran-3-yl)pyridin-2-yl)amino)-4-(7-fluoroimidazo [1,2-a]pyridin-3-yl)isoindolin-1-one]
100 to 1000 nM	CNC1CCN(c2cccc(Nc3cnc(-c4ccnc5c4ccn5C)c4c3C(=O)NC4)n2)CC1 [I-228, 7-[[6-[4-(methylamino)-1-piperidyl]-2-pyridyl]amino]-4-(1-methylpyrrolo [2,3-b]pyridin-4-yl)-2,3-dihydropyrrolo [3,4-c]pyridin-1-one]
< 100 nM	Cc1ccn2c(-c3ccc(Nc4ccc([C@H]5CCOC5)cn4)c4c3CNC4=O)cnc2c1 [I-191, (R)-4-(7-methylimidazo [1,2-a]pyridin-3-yl)-7-((5-(tetrahydro-furan-3-yl)pyridin-2-yl)amino)isoin-dolin-1-one]
< 100 nM	Cn1ccc2c(-c3ncc(Nc4ccc(N5CCC(O)CC5)cn4)c4c3CNC4=O)cccc21 [I-279, 7-((5-(4-hydroxypi-peridin-1-yl)pyridin-2-yl)amino)-4-(1-methyl-1H-indol-4-yl)-2.3-dihydro-1H-pyrrolo[3,4-c]pyridin-1-one]
< 100 nM	CC(C)(O)[C@H]1CN(c2ccc(Nc3cnc(-c4cnc5c(Cl)cccn45)c4c3C(=O)NC4)nc2)CCO1 [I-462]
< 100 nM	Cn1ccc2c(-c3ncc(Nc4cncc(N5CC[C@H]6CNC[C@H]65)n4)c4c3CNC4=O)ccnc21 (single isomer, unassigned) [I-660]
100 to 1000 nM	Cc1ncc2c(-c3ccc(Nc4ccc(N5CCC(O)CC5)cn4)c4c3CNC4=O)cccn12 [I-180, 7-[[5-(4-hydroxy-1-piperidyl)-2-pyridyl]amino]-4-(3-methyliminidazo [1.5-a]pyridin-8-yl)isoindolin-1-one]
< 100 nM	O=C1NCc2c(-c3cnc4cc(F)ccn34)ccc(Nc3ccc(N4CC(O)CCC45CC5)cn3)c21 (centres unmarked) [I-395, 4-(7-fluoroimidazo [1,2-a]pyridin-3-yl)-7-((5-(6-hydroxy-4-azaspiro[2.5]octan-4-yl)pyridin-2-yl)amino)isoin-dolin-1-one]
< 100 nM	CO[C@H]1CCN(Cc2nc(Nc3ccc(-c4cnc5cc(F)ccn45)c4c3C(=O)NC4)ccc2[C@H]2CCOC2)C1 (stereo in doubt) [I-789]

The remaining lines, values behind:

SMILES	IC50
O=C1NCc2c(-c3cnc4ccccn34)ccc(Nc3ccc(N4CC5CCC(C4)N5)cn3)c21 [I-101, 7-[[5-(3,8-diazabicyclo [3,2.1]octan-3-yl)-2-pyridyl]amino]-4-imidazo[1,2-a]pyridin-3-yl-isoindolin-1-one]	< 100 nM
Cc1cnn2c(-c3ccc(Nc4ccc(N5CCC(O)CC5)cn4)c4c3CNC4=O)cnc2c1 [I-184, 7-[[5-(4-hydroxy-1-piperidyl)-2-pyripyl]amino]-4-(7-methylimidazo [1,2-b]pyridazin-3-yl)isoindolin-1-one]	< 100 nM
CN(C)C(C)(C)[C@@H]1CN(c2ccc(Nc3ccc(-c4cnc5cnccn45)c4c3C(=O)NC4)nc2)CCO1 [I-617, (S)-7-((5-(2-(2-(dimethylami-no)propan-2-yl)morpho-lino)pyridin-2-yl)amino)-4-(imidazo[1,2-a]pyrazin-3-yl)isoindolin-1-one]	< 100 nM
Cn1ccc2c(-c3ncc(Nc4ccc(N5CC6CCC(C5)N6)cn4)c4c3CNC4=O)ccnc21 [I-262, 7-((5-(3,8-diazabicyclo [3.2.1]octan-3-yl)pyridin-2-yl)amino)-4-(1-methyl-1H-pyrrolo[2,3-b]pyridin-4-yl)-2,3-dihydro-1H-pyrrolo[3,4-c]pyridin-1-Fone]	< 100 nM
O=C1NCc2c(-c3c[nH]c4ccccc34)ncc(Nc3ccc(N4CCNCC4)cn3)c21 [I-1, 4-(1H-indol-3-yl)-7-[(5-piperazin-1-yl-2-pyridyl)amino]-2,3-dihydropyrrolo [3,4-c]pyridin-1-one]	100 to 1000 nM
CN(C)Cc1nc(Nc2ccc(-c3cnc4cc(C(F)F)ccn34)c3c2C(=O)NC3)ccc1C1CCOC1 (stereo in doubt) [I-752, (S)-4-(7-(difluoromethyl)-imidazo[1,2-a]pyridin-3-yl)-7-((6-((dimethylamino)-methyl)-5-(tetrahydrofuran-3-yl)pyridin-2-yl)amino)isoin-dolin-1-one]	< 100 nM
CN(C)CCOc1ccn2c(-c3ccc(Nc4ccc(N5CCC(F)C(O)C5)cn4)c4c3CNC4=O)cnc2c1 (centres unmarked) [I-249]	100 to 1000 nM
CNC1CCN(c2ccc(Nc3ccc(-c4ccnc5c4ccn5C)c4c3C(=O)NC4)nc2)CC1 [I-62, 7-[[5-[4-(methylamino)-1-piperidyl]-2-pyridyl]amino]-4-(1-methylpyrrolo [2,3-b]pyridin-4-yl)isoindolin-1-one]	< 100 nM
O=C1NCc2c(-c3cccn4nccc34)ncc(Nc3ccc(N4CCC(O)CC4)cn3)c21 [I-370, 7-((5-(4-hydroxy-piperidin-1-yl)pyridin-2-yl)amino)-4-(pyrazolo[1,5-a]pyridin-4-yl)-2,3-dihydro-1H-pyrrolo[3,4-c]pyridin-1-one]	100 to 1000 nM
O=C1NCc2c(-c3cnc4cc(F)ccn34)ccc(Nc3ccc(N4CCO[C@@H](C5(O)CC5)C4)cn3)c21 (single isomer, unassigned) [I-663]	< 100 nM
O=C1NCc2c(-c3cnc4cc(F)ccn34)ccc(Nc3ccc(S(=O)(=O)CC4CCC4)cn3)c21 [I-321, 7-((5-((cyclobutyl-methyl)sulfonyl)pyridin-2-yl)amino)-4-(7-fluoroimidazo [1,2-a]pyridin-3-yl)isoindolin-1-one]	< 100 nM
CN(C)C[C@@]1(O)CCCN(c2ccc(Nc3ccc(-c4cnc5cc(F)ccn45)c4c3C(=O)NC4)nc2)C1 [I-568, (S)-7-((5-(3-((dimethylamino)-methyl)-3-hydroxypiperidin-1-yl)pyridin-2-yl)amino)-4-(7-fluoroimidazo [1,2-a]pyridin-3-yl)isoindolin-1-one]	< 100 nM
O=C1NCc2c(-c3cnc4c(C(F)(F)F)cccn34)ccc(Nc3ccc(N4CCC(O)CC4)cn3)c21 [I-149]	< 100 nM

Reference: US11021481B2, “Substituted isoindolin-1-ones and 2,3-dihydro-1h-pyrrolo[3,4-c]pyridin-1-ones as HPK1 antagonists” (Nimbus Saturn, Inc., priority 2019, dated 2021)
